How the values were obtained:
Assay type in all cases: in vitro ADME
[1] = Hepatocyte intrinsic clearance assay, human hepatocytes; conditions: male, cryopreserved pooled human hepatocytes; Human Hepatocytes, 1 μM test compound
From the text: (§1) The liver is an important organ in the body for drug metabolism. This Example describes hepatocyte intrinsic clearance assays using both human and mouse hepatocytes to evaluate the metabolic stability of the indole compounds disclosed herein. The parameters measured include t1/2 (half-life), CLint (intrinsic clearance), and EH (hepatic extraction ratio).
(§2) Testosterone (Lot FE111011-01) was obtained from Cerilliant (Round Rock, TX). 7-hydroxycoumarin (Lot 11631ED) was obtained from Sigma Aldrich (St. Louis, MO). Cryopreserved human hepatocytes pooled from ten donor males (X008001), cryopreserved male IRC/CD-1 mouse hepatocytes (M005052), INVITROGRO HI Medium (incubation), and INVITROGRO HT Medium (thawing) were obtained from Bioreclamation IVT (Baltimore, MD). All solvents were obtained from commercial sources and used without further purification.
(§3) Each test compound was prepared as a 1 mM stock solution in DMSO. A 2 μM solution of test compound and positive controls were prepared in INVITROGRO HI Medium (incubation). These solutions were pre-warmed in a sterile incubator set to maintain 37° C., 5% CO2, and 98% humidity. Cryopreserved hepatocytes were prepared at a concentration of 2×10^6 living cells/mL in incubation media and pre-warmed in the incubator. The compound solutions and hepatocyte mixtures were then combined at a ratio of 1:1 (v:v). The final volume of the reaction mixture was 750 μL, containing 1 μM test compound (10 μM for 7-hydroxycoumarin) and […]. The reaction mixture was placed in the incubator on a plate shaker. After 0, 15, 30, 60, 90, and 120 minutes of incubation, 100 μL of reaction mixtures were removed from the incubation plate and mixed with 150 μL of ice-cold acetonitrile in a designated well of a 96-well crash plate. The 96-well crash plate was placed on ice for 15 min, and samples were centrifuged (3,600 RPM, 10 min, 4° C.) to precipitate protein. The supernatants were diluted 1:1 (v:v) with water containing 0.15 μM verapamil and/or 1 μM tolbutamide (internal standards for positive and negative modes, respectively) in a 96-well shallow injection plate. This plate was sealed for LC-MS analysis. All measurements were done in duplicate.
(§4) The residual compound remaining (% R) was determined from LC-MS peak areas by comparison to the zero time point. Metabolic half-life (t1/2) and intrinsic clearance (CLint) values were calculated from the slope of the plot of ln (% R) vs. time and the concentration of hepatocytes present in the incubation. Percent remaining at 60 minutes was calculated by plugging in the 60 minute value into the slope equation generated by the percent remaining time points.
(§5) In vivo hepatic clearance CLH was calculated using the well stirred liver model according to the following equation:
(§6) [formula] where QH is the total liver blood flow, fu is unbound fraction of the drug, and CL′int is defined as follows: CL′int=CLint×(10^6 cells/g of liver weight)×(g liver weight/kg of body weight). In the first approximation, used in this study, fu=1.
(§7) Hepatic extraction ratio EH was calculated using the following equation:
(§8) [formula] Corresponding physiological parameters used in calculations for all species are shown below in Table 5.

human hepatocytes = assay: as above; conditions: for CLint (μL/min/10^6 ells) / EH (%) hepatic extraction ratio: Human Hepatocytes; for CLint (μL/min/10^6 ells): 1 μM test compound; for EH (%) hepatic extraction ratio: well stirred liver model, fu=1; for clearance / metabolic profile, in words / EH lower as compared to ARI-002, in words / times lower clearance as compared to ARI-002: human hepatocytes
From the text: as §1, §2, §3, §4, §5, §6, §7, §8

[2] = Hepatocyte intrinsic clearance assay, mouse hepatocytes; conditions: male, IRC/CD-1, cryopreserved mouse hepatocytes; Mouse Hepatocytes, 1 μM test compound
From the text: as §1, §2, §3, §4, §5, §6, §7, §8

mouse hepatocytes = assay: as above; conditions: for CLint (μL/min/10^6 ells) / EH (%) hepatic extraction ratio: Mouse Hepatocytes; for CLint (μL/min/10^6 ells): 1 μM test compound; for EH (%) hepatic extraction ratio: well stirred liver model, fu=1; for clearance / metabolic profile, in words / EH lower as compared to ARI-002, in words / times lower clearance as compared to ARI-002: mouse hepatocytes
From the text: as §1, §2, §3, §4, §5, §6, §7, §8

Compound | half-life at 1 μM [1] | CLint (μL/min/10^6 ells) (human hepatocytes) | EH (%) hepatic extraction ratio (human hepatocytes) | half-life at 1 μM [2] | CLint (μL/min/10^6 ells) (mouse hepatocytes) | EH (%) hepatic extraction ratio (mouse hepatocytes) | clearance / metabolic profile, in words (human hepatocytes) | clearance / metabolic profile, in words (mouse hepatocytes) | EH lower as compared to ARI-002, in words (human hepatocytes) | times lower clearance as compared to ARI-002 (human hepatocytes) | EH lower as compared to ARI-002, in words (mouse hepatocytes) | times lower clearance as compared to ARI-002 (mouse hepatocytes)
Nc1nnc(-c2csc(C(=O)c3c[nH]c4ccc(F)cc34)n2)o1 [ARI-148, (4-(5-amino-1,3,4-oxadiazol-2-yl)thiazol-2-yl)(5-fluoro-1H-indol-3-yl)methanone] | 4.7 h | 2.5 μL/min/10^6 ells | 23% | 3.17 h | 3.6 μL/min/10^6 ells | 18% | – | – | – | – | – | –
COC(=O)c1csc(C(=O)c2c[nH]c3ccc(F)cc23)n1 [ARI-066, methyl 2-(5-fluoro-1H-indole-3-carbonyl)thiazole-4-carboxylate] | 0.117 h | 98.7 μL/min/10^6 ells | 92% | 0.223 h | 51.9 μL/min/10^6 ells | 75% | – | – | – | – | – | –
Nc1nnc(-c2csc(C(=O)c3c[nH]c4ccccc34)n2)s1 [ARI-090, (4-(5-amino-1,3,4-thiadiazol-2-yl)thiazol-2-yl)(1H-indol-3-yl)methanone] | 2.19 h | 5.3 μL/min/10^6 ells | 39% | 4.7 h | 2.5 μL/min/10^6 ells | 13% | – | – | – | – | – | –
Nc1nnc(-c2csc(C(=O)c3c[nH]c4c(F)cccc34)n2)o1 [ARI-118, (4-(5-amino-1,3,4-oxadiazol-2-yl)thiazol-2-yl)(7-fluoro-1H-indol-3-yl)methanone] | 15.4 h | 0.7 μL/min/10^6 ells | 8.4% | 14 h | 0.8 μL/min/10^6 ells | 4.6% | low clearance | low clearance | – | – | – | –
Cc1noc(-c2csc(C(=O)c3c[nH]c4ccccc34)n2)n1 [ARI-031, (1H-indol-3-yl)(4-(3-methyl-1,2,4-oxadiazol-5-yl)thiazol-2-yl)methanone] | 16.1 h | 0.7 μL/min/10^6 ells | 8% | 11.7 h | 1.0 μL/min/10^6 ells | 6% | low clearance | low clearance | – | – | – | –
COC(=O)c1csc(C(=O)c2c[nH]c3ccccc23)n1 [ARI-001, ITE] | 0.13 h | 220.4 μL/min/10^6 ells | 91% | 0.0917 h | 585.7 μL/min/10^6 ells | 87% | – | – | – | – | – | –
NCc1nc(-c2csc(C(=O)c3c[nH]c4c(F)cccc34)n2)no1 [ARI-146, (4-(5-(aminomethyl)-1,2,4-oxadiazol-3-yl)thiazol-2-yl)(7-fluoro-1H-indol-3-yl)methanone] | 6.23 h | 1.9 μL/min/10^6 ells | 19% | 1.67 h | 6.9 μL/min/10^6 ells | 29% | – | – | – | – | – | –
CNC(=O)c1csc(C(=O)c2c[nH]c3ccccc23)n1 [ARI-004] | 0.712 h | 40.2 μL/min/10^6 ells | 65% | 0.0467 h | 1,174.2 μL/min/10^6 ells | 93% | – | – | – | – | – | –
COC(=O)c1csc(C(=O)c2c[nH]c3ccc(Cl)cc23)n1 [ARI-055, methyl 2-(5-chloro-1H-indole-3-carbonyl)thiazole-4-carboxylate] | 1.12 h | 10.3 μL/min/10^6 ells | 56% | 2.25 h | 5.1 μL/min/10^6 ells | 23% | – | – | – | – | – | –
CCC(=O)c1csc(C(=O)c2c[nH]c3ccc(F)cc23)n1 [ARI-087, 1-(2-(5-fluoro-1H-indole-3-carbonyl)thiazol-4-yl)propan-1-one] | 1.91 h | 6.0 μL/min/10^6 ells | 43% | 1.84 h | 6.3 μL/min/10^6 ells | 27% | – | – | two times lower | 23 times | three times lower | 153 times
Nc1nnc(-c2csc(C(=O)c3c[nH]c4cc(Cl)c(Cl)cc34)n2)o1 [ARI-120, (4-(5-amino-1,3,4-oxadiazol-2-yl)thiazol-2-yl)(5,6-dichloro-1H-indol-3-yl)methanone] | 15.3 h | 0.8 μL/min/10^6 ells | 8.5% | 13.5 h | 0.9 μL/min/10^6 ells | 4.8% | low clearance | low clearance | – | – | – | –
CCC(=O)c1csc(C(=O)c2c[nH]c3ccc(Cl)cc23)n1 [ARI-067, 1-(2-(5-chloro-1H-indole-3-carbonyl)thiazol-4-yl)propan-1-one] | 5 h | 2.3 μL/min/10^6 ells | 22% | 3.54 h | 3.3 μL/min/10^6 ells | 16% | – | – | – | – | – | –
CCC(=O)c1csc(C(=O)c2c[nH]c3cc(F)ccc23)n1 [ARI-143, 1-(2-(6-fluoro-1H-indole-3-carbonyl)thiazol-4-yl)propan-1-one] | 2.57 h | 4.5 μL/min/10^6 ells | 36% | 5.1 h | 2.3 μL/min/10^6 ells | 12% | – | – | two times | 30 times | eight times lower | 418 times
CNC(=O)c1csc(C(=O)c2c[nH]c3ccc(F)cc23)n1 [ARI-065, 2-(5-fluoro-1H-indole-3-carbonyl)-N-methylthiazole-4-carboxamide] | 1.52 h | 7.6 μL/min/10^6 ells | 48% | 1.62 h | 7.1 μL/min/10^6 ells | 29% | lower clearance and EH value | lower clearance and EH value | – | – | – | –
